Data published in PubChem BioAssay AID1259411 (Chemical Carcinogenesis Research Information System (CCRIS), 2018).
The source made the active and inactive calls. No rule for the calls is given here.

Test system: rodent carcinogenicity bioassays, tumor incidence
Experiment: CCRIS carcinogenicity studies
Method in brief: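 Archive of carcinogenicity, mutagenicity, tumor promotion and tumor inhibition results drawn from journals, NCI reports and other sources, expert-reviewed; covers 1985-2011 and is no longer updated.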

Cc1c2ccccc2c(C)c2c1ccc1ccccc12
carcinogen call (Species: MOUSE, Strain/Sex: SWISS/MALE,FEMALE, Route: SUBCUTANEOUS, Dose: 30-40 UG IN 0.02 ML OF 1% AQ GEL, Tumor Site: Type of Lesion: LUNG, LYMPHATIC SYSTEM: MALIGNANT LYMPHOMA): active; positive
carcinogen call (Species: RAT, Strain/Sex: ALBINO/MALE,FEMALE, Route: SUBCUTANEOUS, Dose: 5 MG IN 0.5 ML OLIVE OIL ONCE, Tumor Site: Type of Lesion: INJECTION SITE: RHABDOMYOSARCOMA): active; positive
carcinogen call (Species: RAT, Strain/Sex: BIRMINGHAM/ MALE, FEMALE, Route: DERMAL, Dose: 0.5, 1.6% SOLN IN OLIVE OIL ONCE EVERY 2 WK, Tumor Site: Type of Lesion: INTEGUMENTARY SYSTEM (SKIN): SQUAMOUS PAPILLOMA, KERATOACANTHOMA, SQUAMOUS CELL CARCINOMA, MAMMARY GLAND): active; positive
carcinogen call (Species: RAT, Strain/Sex: F344/FEMALE, 3 WKS OF AGE, Route: GAVAGE, Dose: 50 MG/KG ONCE (STUDY DURATION: 36 WKS), Tumor Site: Type of Lesion: MAMMARY GLAND: CARCINOMA): 20% tumor incidence; 0.23 carcinomas/rat; immature rats less susceptible
carcinogen call (Species: RAT, Strain/Sex: F344/FEMALE, 8 WKS OF AGE, Route: GAVAGE, Dose: 50 MG/KG ONCE (STUDY DURATION: 36 WKS), Tumor Site: Type of Lesion: MAMMARY GLAND: CARCINOMA): 69% tumor incidence; 1.27 carcinomas/rat; mature rats more susceptible
carcinogen call (Species: RAT, Strain/Sex: OUTBRED/ MALE, FEMALE, Route: DERMAL, Dose: 0.5, 1.6% SOLN IN OLIVE OIL ONCE EVERY 2 WK, Tumor Site: Type of Lesion: INTEGUMENTARY SYSTEM (SKIN): SQUAMOUS PAPILLOMA, KERATOACANTHOMA, SQUAMOUS CELL CARCINOMA, MAMMARY GLAND): active; positive
carcinogen call (Species: RAT, Strain/Sex: SPRAGUE-DAWLEY/FEMALE, Route: GAVAGE, Dose: 10 MG IN 0.5 ML SESAME OIL ONCE, Tumor Site: Type of Lesion: MAMMARY GLAND): active; positive
carcinogen call (Species: RAT, Strain/Sex: SPRAGUE-DAWLEY/FEMALE, Route: GAVAGE, Dose: 20 MG IN 1 ML SESAME OIL ONCE, Tumor Site: Type of Lesion: MAMMARY GLAND: FIBROADENOMA, CARCINOMA): active; positive
carcinogen call (Species: RAT, Strain/Sex: SPRAGUE-DAWLEY/FEMALE, Route: INJECTION, Dose: 0, 0.25, 1 UMOL PER MAMMARY GLAND (STUDY DURATION: 24 WK), Dose: 0, 0.25, 1 UMOL PER MAMMARY GLAND (STUDY DURATION: 24 WK), Tumor Site: Type of Lesion: MAMMARY GLAND: TUMOR): active; positive
carcinogen call (Species: RAT, Strain/Sex: SPRAGUE-DAWLEY/FEMALE, Route: INTRAVENOUS, Dose: 5 MG IN 1 ML LIPID EMULSION ONCE, Tumor Site: Type of Lesion: MAMMARY GLAND): active; positive
carcinogen call (Species: RAT, Strain/Sex: SPRAGUE-DAWLEY/FEMALE, Route: ORAL, Dose: 10 MG IN SESAME OIL 3 TIMES AT 14 D INTERVALS, Tumor Site: Type of Lesion: MAMMARY GLAND: ADENOMA, ADENOCARCINOMA): active; positive
carcinogen call (Species: RAT, Strain/Sex: SPRAGUE-DAWLEY/FEMALE, Route: ORAL, Dose: 20 MG IN SESAME OIL ONCE, Tumor Site: Type of Lesion: MAMMARY GLAND: ADENOMA, FIBROADENOMA, CARCINOMA, ADENOCARCINOMA): active; positive
carcinogen call (Species: RAT, Strain/Sex: SPRAGUE-DAWLEY/FEMALE, Route: SUBCUTANEOUS, Dose: 0, 2 UMOL IN 0.25 ML TRIOCTANOIN INTO LEFT HIND LEG AT ABOUT 40 D OF AGE FOLLOWED BY SECOND DOSE 6 D LATER (STUDY DURATI, Tumor Site: Type of Lesion: INJECTION SITE: SARCOMA): active; positive
carcinogen call (Species: RAT, Strain/Sex: SPRAGUE-DAWLEY/FEMALE, Route: SUBCUTANEOUS, Dose: 0, 2 UMOL IN 0.25 ML TRIOCTANOIN ONCE INTO LEFT HIND LEG AT ABOUT 40 D OF AGE (STUDY DURATION: 16 MO), Tumor Site: Type of Lesion: INJECTION SITE: SARCOMA): active; positive
carcinogen call (Species: RAT, Strain/Sex: STRAIN-CB/FEMALE, Route: SUBCUTANEOUS, Dose: 0.25 ML OF 1% SOLN IN DMSO ONCE, Tumor Site: Type of Lesion: INJECTION SITE: SPINDLE CELL SARCOMA): active; positive
carcinogen call (Species: RAT, Strain/Sex: WISTAR/FEMALE, Route: GAVAGE, Dose: 0.4 ML OF 0.5% SUNFLOWER SEED OIL SOLN 2/WK FOR 4.5 MO (TOTAL DOSE: 68 MG), Tumor Site: Type of Lesion: HEMATOPOIETIC SYSTEM (LEUKEMIA)): active; positive
carcinogen call (Species: RAT, Strain/Sex: WISTAR/FEMALE, Route: INJECTION, Dose: 0, 0.05 ML OF A 1% SOLUTION IN ACETONE INJECTED INTO SUBMANDIBULAR SALIVARY GLANDS AFTER EXCISION OF A SMALL PORTION OF, Tumor Site: Type of Lesion: SALIVARY GLAND: ADENOCARCINOMA): active; positive
carcinogen call (Species: RAT, Strain/Sex: WISTAR/FEMALE, Route: INTRADUCTAL, Dose: 0, 1 MG IN 0.05 ML OF SESAME OIL INJECTED INTO MAIN MAMMARY DUCT ON THE 10TH PUERPERAL DAY (STUDY DURATION: 20 WK), Tumor Site: Type of Lesion: MAMMARY GLAND: DUCTAL CARCINOMA): active; positive
carcinogen call (Species: RAT, Strain/Sex: WISTAR/FEMALE, Route: ORAL, Dose: 10 MG IN SESAME OIL 3 TIMES AT 14 D INTERVALS, Tumor Site: Type of Lesion: MAMMARY GLAND: ADENOMA, ADENOCARCINOMA): active; positive
carcinogen call (Species: RAT, Strain/Sex: WISTAR/FURTH/FEMALE, Route: OVARIAN IMPLANTATION OF CARCINOGEN-COATED SUTURE AT 7 WKS OF AGE, Dose: 200 UG IN SUTURE ONCE (STUDY DURATION: 1 YR), Tumor Site: Type of Lesion: OVARY: ADENOCARCINOMA, 77%): active; positive
carcinogen call (Species: RAT, Strain/Sex: WISTAR/MALE, Route: INJECTION, Dose: 0, 0.05 ML OF A 1% SOLUTION IN ACETONE INJECTED INTO SUBMANDIBULAR SALIVARY GLANDS AFTER EXCISION OF A SMALL PORTION OF, Tumor Site: Type of Lesion: SALIVARY GLAND: FIBROSARCOMA): active; positive
carcinogen call (Species: RAT, Strain/Sex: ZUCKER/FEMALE, LEAN, Route: ORAL (GAVAGE), Dose: 65 MG/KG ONCE AT 50 D OF AGE (STUDY DURATION: 139 D), Tumor Site: Type of Lesion: MAMMARY: TUMOR 32%, LATENCY 86 D): active; positive; lean rats had longer latent period and lower tumor incidence than obes
carcinogen call (Species: RAT, Strain/Sex: ZUCKER/FEMALE, OBESE, Route: ORAL (GAVAGE), Dose: 65 MG/KG ONCE AT 50 D OF AGE (STUDY DURATION: 139 D), Tumor Site: Type of Lesion: MAMMARY: TUMOR 68%, LATENCY 49 D): active; positive; obese rats had higher tumor incidence and shorter latent period than l
carcinogen call (Species: Rat, Strain/Sex: Fischer 344/Female, Route: Direct application to ovary, Dose: 100 ug in sesame oil, once, study duration 5 months): inactive; negative
carcinogen call (Species: SHREW, Strain/Sex: JAPANESE/FEMALE, Route: INTRAPERITONEAL, Dose: 0, 1.25, 2.5 MG 1/WK FOR 4 WK (STUDY DURATION: 50 WK), Dose: 0, 1.25, 2.5 MG 1/WK FOR 4 WK (STUDY DURATION: 50 WK), Tumor Site: Type of Lesion: HEMATOPOIETIC SYSTEM: LEUKEMIA): active; positive
carcinogen call (Species: SHREW, Strain/Sex: JAPANESE/FEMALE, Route: INTRAPERITONEAL, Dose: 0, 1.25, 2.5 MG 1/WK FOR 8 WK (STUDY DURATION: 50 WK), Dose: 0, 1.25, 2.5 MG 1/WK FOR 8 WK (STUDY DURATION: 50 WK), Tumor Site: Type of Lesion: HEMATOPOIETIC SYSTEM: LEUKEMIA): active; positive
carcinogen call (Species: SHREW, Strain/Sex: JAPANESE/FEMALE, Route: SUBCUTANEOUS, Dose: 0, 1 MG INTO RIGHT INGUINAL SUBCUTANEOUS TISSUE OVER THE MAMMARY GLAND ONCE (STUDY DURATION: 50 WK), Tumor Site: Type of Lesion: INJECTION SITE: SARCOMA): active; positive
